This data set relates to intraocular pressure (IOP) of the rabbit eye. As to the kind of experiment: IOP (TonoPen) in anaesthetized normal NZW rabbits after deposition/injection beneath the Tenon's capsule. The conditions noted are these: Example 9; 50 or 100 μg below the Tenon's capsule.

No end group written: not given here.

Consider CHSKTR [CHSKTR], for which the “local or systemic side effects” value is recorded as “without inducing any local or systemic side effects”.

The record behind these values is patent US9000125B2, “Approach to treat intraocular hypertension” (priority 2006, dated 2015).
